14 compounds from PubChem BioAssay (NCI) can be followed below.

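In this assay, cells in 96-well plates receive the compound at five concentrations for 48 hours. Endpoints are linearly interpolated between the surrounding concentrations. TGI: concentration producing complete growth inhibition.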 Where only a bound is given, the exact number is not on record here.

Test systems include BT-549 breast; MOLT-4 leukemia; NCI-H23 lung; OVCAR-3 ovarian; RXF 393 renal; SF-268 CNS; SF-539 CNS; SK-MEL-5 melanoma; SR leukemia; TK-10 renal.
What all share (assay): NCI-60 cell line screen, 48 h

For `CN(C)CCOc1ccc(-c2c(Oc3ccccc3)c(=O)oc3ccccc23)cc1`, the TGI with BT-549 breast amounted to 26.6 µM; in the experiment on MOLT-4 leukemia, 20.5 µM; with NCI-H23 lung, 28.6 µM; with OVCAR-3 ovarian it was 26 µM; in the experiment with RXF 393 renal it was 17.6 µM; in the experiment with SF-268 CNS, 25.4 µM. For the same compound, the TGI with SF-539 CNS was 27.9 µM; in the experiment on SK-MEL-5 melanoma it was 13.1 µM; with SR leukemia, 19.4 µM; in the experiment on TK-10 renal it was 26.4 µM.

As to `COc1ccc(NC(C(N)=O)c2cc3cc(Br)ccc3nc2Cl)cc1` (stereo not given), the TGI with BT-549 breast is over 100 µM; with MOLT-4 leukemia, 62.9 µM; in the experiment with NCI-H23 lung it was over 100 µM; in the experiment on OVCAR-3 ovarian, over 100 µM; in the experiment with RXF 393 renal it was over 100 µM; in the experiment on SF-268 CNS it was over 100 µM. Besides, the TGI with SF-539 CNS is over 100 µM; in the experiment on SK-MEL-5 melanoma, over 100 µM; with SR leukemia, 51.6 µM; with TK-10 renal, 37.9 µM.

For `Cc1cc2c(cc1C)C(=O)C1(C2)Cc2cc3c(cc2C1=O)CCC3` (stereo not given), the TGI with BT-549 breast, in the experiment with MOLT-4 leukemia, in the experiment with NCI-H23 lung, in the experiment with OVCAR-3 ovarian, with RXF 393 renal and in the experiment with SF-268 CNS was over 100 µM in each case. Moreover, the TGI in the experiment on SF-539 CNS is 91.9 µM; in the experiment with SK-MEL-5 melanoma, over 100 µM; in the experiment with SR leukemia it was over 100 µM; with TK-10 renal it was over 100 µM.

Consider `O=c1[nH]nc(Cc2ccccc2)n1/N=C/c1cccnc1`, for which the TGI in the experiment with BT-549 breast, with MOLT-4 leukemia, in the experiment with NCI-H23 lung, in the experiment with OVCAR-3 ovarian, in the experiment on RXF 393 renal and in the experiment with SF-268 CNS was over 100 µM in each case. For the same compound, the TGI with SF-539 CNS, in the experiment with SK-MEL-5 melanoma, with SR leukemia and in the experiment on TK-10 renal was over 100 µM in each case.

As for `COc1cc(C2C3=C(CCCC3=O)N(c3ccc(C)cc3)C3=C2C(=O)CCC3)c([N+](=O)[O-])cc1OC`, the TGI with BT-549 breast, with MOLT-4 leukemia, in the experiment with NCI-H23 lung, in the experiment on OVCAR-3 ovarian, in the experiment on RXF 393 renal and in the experiment with SF-268 CNS was over 100 µM in each case. Moreover, the TGI in the experiment on SF-539 CNS, in the experiment on SK-MEL-5 melanoma, in the experiment with SR leukemia and in the experiment with TK-10 renal was over 100 µM in each case.

As to `O=C(c1cccnc1)N1N=C(c2ccccc2)CC1(O)c1cc(F)c(Cl)cc1Cl` (stereo not given), the TGI with BT-549 breast was 43.1 µM; in the experiment with MOLT-4 leukemia it was over 100 µM; in the experiment with NCI-H23 lung it was over 100 µM; in the experiment on OVCAR-3 ovarian it was 24.5 µM; in the experiment on RXF 393 renal it was 34.9 µM; in the experiment on SF-268 CNS, over 100 µM. For the same compound, the TGI in the experiment with SF-539 CNS was 32.3 µM; in the experiment on SK-MEL-5 melanoma, 27.6 µM; in the experiment with SR leukemia it was 67 µM; in the experiment with TK-10 renal it was over 100 µM.

For `CC(=O)C(C(C)=O)[C@@H]1OC(C)(C)O[C@@H]1[C@H]1COC(C)(C)O1`, the TGI with BT-549 breast, in the experiment with MOLT-4 leukemia, with NCI-H23 lung, in the experiment on OVCAR-3 ovarian, in the experiment on RXF 393 renal and in the experiment on SF-268 CNS was over 100 µM each time. The TGI in the experiment on SF-539 CNS, in the experiment with SK-MEL-5 melanoma, in the experiment on SR leukemia and with TK-10 renal was over 100 µM in each case.

With `O=c1c2cnccc2cc2c3ccccc3ccn12`, the TGI with BT-549 breast is over 100 µM; with MOLT-4 leukemia, 91.8 µM; with NCI-H23 lung, over 100 µM; in the experiment with OVCAR-3 ovarian, over 100 µM; in the experiment on RXF 393 renal, over 100 µM; in the experiment on SF-268 CNS, over 100 µM. The TGI in the experiment on SF-539 CNS, in the experiment with SK-MEL-5 melanoma, with SR leukemia and in the experiment on TK-10 renal was over 100 µM throughout.

With `CCCCc1ccc(Nc2nc(Cl)c3c(ncn3C3CC(Oc4ccc(C)cc4)C(COc4ccc(C)cc4)O3)n2)cc1` (stereo not given), the TGI with BT-549 breast, in the experiment with MOLT-4 leukemia, in the experiment with NCI-H23 lung, in the experiment on OVCAR-3 ovarian, in the experiment on RXF 393 renal and with SF-268 CNS was over 100 µM throughout. The TGI with SF-539 CNS, in the experiment on SK-MEL-5 melanoma, with SR leukemia and in the experiment with TK-10 renal was over 100 µM each time.

For the compound `CN(CCCNC(=O)c1nn(C)c2c1Cc1ccccc1-2)CCCNC(=O)c1nn(C)c2c1Cc1ccccc1-2`, the TGI with BT-549 breast amounted to 47.2 µM; in the experiment on MOLT-4 leukemia, 24.4 µM; with NCI-H23 lung, 47.3 µM; with OVCAR-3 ovarian it was 38 µM; with RXF 393 renal, 34.3 µM; with SF-268 CNS it was 37.9 µM. Besides, the TGI in the experiment with SF-539 CNS was 33.9 µM; in the experiment on SK-MEL-5 melanoma, 29.8 µM; in the experiment with SR leukemia, over 100 µM; in the experiment on TK-10 renal it was 36.2 µM.

Take `CN(C)CCNC(=O)c1cccc2nc3c(C(=O)NCCN(C)C)cccc3nc12`: the TGI in the experiment with BT-549 breast was 15.9 µM; in the experiment on MOLT-4 leukemia, 14.7 µM; in the experiment on NCI-H23 lung it was 5.76 µM; with OVCAR-3 ovarian, 8.67 µM; with RXF 393 renal it was 4.06 µM; in the experiment on SF-268 CNS, 4.84 µM. Besides, the TGI in the experiment on SF-539 CNS was 6.64 µM; in the experiment with SK-MEL-5 melanoma it was 3.02 µM; with SR leukemia, 3.6 µM; in the experiment on TK-10 renal it was 6.81 µM.

Consider `Cc1ccc(S(=O)(=O)N/N=C2\CC3CC4CCC2C4C3)cc1` (stereo not given), for which the TGI in the experiment with BT-549 breast, with MOLT-4 leukemia, in the experiment on NCI-H23 lung, with OVCAR-3 ovarian, in the experiment on RXF 393 renal and in the experiment on SF-268 CNS was over 100 µM in each case. The TGI with SF-539 CNS, in the experiment on SK-MEL-5 melanoma, in the experiment on SR leukemia and in the experiment with TK-10 renal was over 100 µM in each case.

Regarding `Cc1c(C)c(C)c(-n2c(=O)n(C)c(=O)n2-c2cc(C(C)(C)C)cc(C(C)(C)C)c2O)c(C)c1C`, the TGI in the experiment with BT-549 breast was determined as 28.1 µM; in the experiment with MOLT-4 leukemia, 19.3 µM; in the experiment on NCI-H23 lung, 24 µM; in the experiment on OVCAR-3 ovarian, 19.3 µM; in the experiment on RXF 393 renal, 11.6 µM; in the experiment on SF-268 CNS it was 27.7 µM. In addition, the TGI was 24.3 µM with SF-539 CNS, 18.5 µM in the experiment with SK-MEL-5 melanoma, over 46.9 µM with SR leukemia and 24.5 µM in the experiment on TK-10 renal.

For the compound `CC1(C)C2CCC1C(=O)[C@@]1(C=CC(=O)CC1)C2` (stereo not given in full), the TGI in the experiment with BT-549 breast, in the experiment on MOLT-4 leukemia, in the experiment with NCI-H23 lung, with OVCAR-3 ovarian, in the experiment on RXF 393 renal and in the experiment with SF-268 CNS was over 100 µM in each case. In addition, the TGI with SF-539 CNS, in the experiment with SK-MEL-5 melanoma, in the experiment with SR leukemia and in the experiment with TK-10 renal was over 100 µM in each case.
